# Laboratory results from ChEMBL document CHEMBL5154749 (Eur J Med Chem, 2022).
# Calls of active or inactive are those of the source. No cut-off for these calls is given here.
# Experiments:
# [1] = test system: LoVo; experiment: Antimigratory activity in human LoVo cells assessed as suppression of cell migration measured at up to 1 uM by wound healing assay; assay type: functional, cell-based; settings: time <= 48.0 hrs, TDE = time-dependent effect
# [2] = test system: HT-29; experiment: Induction of apoptosis in human HT-29 cells assessed as late apoptotic cells at 0.3 uM measured after 48 hrs by Annexin V-FITC/Propidium iodide staining based FACS cytometry analysis (reference value: 0.71%); assay type: functional
# [3] = test system: Granta-519; experiment: Antiproliferative activity against ATM-deficient human Granta-519 cells assessed as reduction in cell viability incubated for 72 hrs by MTT assay; assay type: functional, cell-based; settings: dose 0.001-100 µM, DDE = dose-dependent effect
# [4] = test system: HT-29; experiment: Induction of apoptosis in human HT-29 cells assessed as necrotic cells at 1 uM measured after 48 hrs by Annexin V-FITC/Propidium iodide staining based flow cytometry analysis (reference value: 0.73%); assay type: functional
# [5] = Cmax in Sprague-Dawley rat at 10 mg/kg, po measured at 0.083 to 24 hrs by LC-MS/MS method; assay type: ADME, organism-based; design: time 0.083-24 hrs, dose 10 mg/kg, route po; settings: in vivo
# [6] = test system: LoVo; experiment: Induction of apoptosis in human LoVo cells deficient in ATM assessed as late apoptotic cells at 3 uM measured after 24 hrs by Annexin V-FITC/Propidium iodide staining based flow cytometry analysis (reference value: 3.32%); assay type: functional
# [7] = test system: HT-29; experiment: Induction of apoptosis in human HT-29 cells assessed as viable cells at 1 uM measured after 48 hrs by Annexin V-FITC/Propidium iodide staining based flow cytometry analysis (reference value: 97.01%); assay type: functional; settings: read-out: Activity
# [8] = Oral bioavailability in Sprague-Dawley rat at 10 mg/kg measured at 0.083 to 24 hrs by LC-MS/MS method; assay type: ADME, organism-based; settings: in vivo, time 0.083-24 hrs
# [9] = Tmax in Sprague-Dawley rat at 5 mg/kg, iv measured at 0.083 to 24 hrs by LC-MS/MS method; assay type: ADME, organism-based; settings: in vivo, time 0.083-24 hrs
# [10] = Toxicity in NOD/SCID mouse xenografted with human LoVo cells assessed as damage in spleen at 50 to 100 mg/kg, po administered bid for 30 days measured after 2 hrs post last dose by H and E staining method; assay type: organism-based; settings: in vivo, 720 h, dose 50-100 mg/kg, time 30 day
# [11] = target: T1, Serine/threonine-protein kinase ATR (Homo sapiens, UniProt Q13535); experiment: In vivo inhibition of ATR in human LoVo cells xenografted in NOD/SCID mouse assessed as inhibition of Chk1 phosphorylation at 50 to 100 mg/kg, po administered twice a day for 30 days by Western blot analysis; settings: dose 50-100 mg/kg, time 30.0 day
# T1 sequence (Q13535 whole entry, looked up): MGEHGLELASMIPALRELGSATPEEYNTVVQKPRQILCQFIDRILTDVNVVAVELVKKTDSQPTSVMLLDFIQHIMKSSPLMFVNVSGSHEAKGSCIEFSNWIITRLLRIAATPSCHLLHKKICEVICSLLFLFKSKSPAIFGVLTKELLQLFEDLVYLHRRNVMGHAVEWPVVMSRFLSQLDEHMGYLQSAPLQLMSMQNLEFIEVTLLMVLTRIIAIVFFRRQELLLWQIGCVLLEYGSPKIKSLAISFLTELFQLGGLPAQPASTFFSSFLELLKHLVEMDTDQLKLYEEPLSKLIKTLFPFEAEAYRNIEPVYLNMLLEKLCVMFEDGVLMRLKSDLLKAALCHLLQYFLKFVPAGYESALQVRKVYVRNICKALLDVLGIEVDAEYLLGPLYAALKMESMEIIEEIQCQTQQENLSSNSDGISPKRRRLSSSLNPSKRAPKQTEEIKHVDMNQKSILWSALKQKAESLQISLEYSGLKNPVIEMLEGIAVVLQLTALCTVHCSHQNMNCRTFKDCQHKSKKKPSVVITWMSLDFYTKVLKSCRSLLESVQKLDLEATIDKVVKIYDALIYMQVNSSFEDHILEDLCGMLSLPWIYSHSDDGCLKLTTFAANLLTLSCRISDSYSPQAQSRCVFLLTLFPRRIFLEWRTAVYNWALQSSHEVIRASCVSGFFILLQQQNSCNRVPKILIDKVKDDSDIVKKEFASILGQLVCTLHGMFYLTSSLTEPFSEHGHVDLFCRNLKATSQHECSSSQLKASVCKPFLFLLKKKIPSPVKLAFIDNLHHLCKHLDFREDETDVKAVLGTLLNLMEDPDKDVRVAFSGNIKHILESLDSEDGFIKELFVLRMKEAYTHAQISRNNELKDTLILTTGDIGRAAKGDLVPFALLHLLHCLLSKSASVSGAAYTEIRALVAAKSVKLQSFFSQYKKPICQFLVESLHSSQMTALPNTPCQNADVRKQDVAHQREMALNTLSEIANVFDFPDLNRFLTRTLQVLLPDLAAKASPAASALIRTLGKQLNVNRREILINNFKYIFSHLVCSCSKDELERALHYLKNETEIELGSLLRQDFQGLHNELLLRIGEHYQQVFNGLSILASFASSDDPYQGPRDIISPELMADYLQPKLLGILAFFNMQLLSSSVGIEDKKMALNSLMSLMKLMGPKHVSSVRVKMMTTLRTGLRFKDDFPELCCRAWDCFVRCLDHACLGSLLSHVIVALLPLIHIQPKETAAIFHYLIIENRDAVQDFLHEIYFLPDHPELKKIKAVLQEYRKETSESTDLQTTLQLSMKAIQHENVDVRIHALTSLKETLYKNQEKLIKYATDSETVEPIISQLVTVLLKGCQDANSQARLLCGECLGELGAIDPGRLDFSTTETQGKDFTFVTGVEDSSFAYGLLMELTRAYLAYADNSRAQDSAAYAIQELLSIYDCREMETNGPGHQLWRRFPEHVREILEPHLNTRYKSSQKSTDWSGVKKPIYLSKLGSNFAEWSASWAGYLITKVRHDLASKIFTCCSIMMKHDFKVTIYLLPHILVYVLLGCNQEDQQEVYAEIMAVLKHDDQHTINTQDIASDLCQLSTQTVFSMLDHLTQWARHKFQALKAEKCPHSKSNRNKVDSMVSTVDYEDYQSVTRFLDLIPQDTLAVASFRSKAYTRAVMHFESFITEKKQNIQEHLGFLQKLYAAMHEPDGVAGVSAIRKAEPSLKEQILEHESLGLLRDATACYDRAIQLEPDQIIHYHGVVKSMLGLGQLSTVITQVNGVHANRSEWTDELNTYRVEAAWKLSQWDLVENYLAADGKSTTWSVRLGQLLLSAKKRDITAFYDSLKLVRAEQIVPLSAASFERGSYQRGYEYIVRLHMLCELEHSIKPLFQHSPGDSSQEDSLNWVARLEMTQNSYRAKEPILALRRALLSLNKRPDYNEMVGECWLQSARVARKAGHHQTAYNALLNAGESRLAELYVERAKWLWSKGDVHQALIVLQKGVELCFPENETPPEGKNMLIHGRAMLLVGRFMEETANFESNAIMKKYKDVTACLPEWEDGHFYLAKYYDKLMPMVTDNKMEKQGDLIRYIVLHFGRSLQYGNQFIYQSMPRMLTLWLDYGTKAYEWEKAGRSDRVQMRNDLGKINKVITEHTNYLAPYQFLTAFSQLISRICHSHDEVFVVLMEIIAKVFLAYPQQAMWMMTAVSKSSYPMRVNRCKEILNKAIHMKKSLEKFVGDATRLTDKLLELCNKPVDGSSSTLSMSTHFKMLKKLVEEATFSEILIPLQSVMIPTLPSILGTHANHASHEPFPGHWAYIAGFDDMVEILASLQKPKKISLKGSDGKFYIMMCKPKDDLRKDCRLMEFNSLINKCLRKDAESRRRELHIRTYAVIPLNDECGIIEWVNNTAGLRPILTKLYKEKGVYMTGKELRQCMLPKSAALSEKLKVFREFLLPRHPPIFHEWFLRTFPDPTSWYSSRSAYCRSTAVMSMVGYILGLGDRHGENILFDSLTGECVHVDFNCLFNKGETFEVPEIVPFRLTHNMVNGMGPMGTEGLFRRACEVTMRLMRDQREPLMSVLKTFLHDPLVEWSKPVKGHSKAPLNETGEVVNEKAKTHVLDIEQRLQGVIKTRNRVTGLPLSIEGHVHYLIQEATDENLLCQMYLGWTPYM
# [12] = test system: HT-29; experiment: Induction of apoptosis in human HT-29 cells assessed as late apoptotic cells at 3 uM measured after 48 hrs in presence of AZD1390 by Annexin V-FITC/Propidium iodide staining based flow cytometry analysis (reference value: 0.63%); assay type: functional
# [13] = Toxicity in NOD/SCID mouse xenografted with human LoVo cells assessed as damage in liver at 50 to 100 mg/kg, po administered bid for 30 days measured after 2 hrs post last dose by H and E staining method; assay type: organism-based; settings: in vivo, 720 h, dose 50-100 mg/kg, time 30 day
# [14] = test system: LoVo; experiment: Induction of apoptosis in human LoVo cells deficient in ATM assessed as necrotic cells at 0.3 uM measured after 24 hrs by Annexin V-FITC/Propidium iodide staining based flow cytometry analysis (reference value: 0.84%); assay type: functional
# [15] = test system: LoVo; experiment: Antimigratory activity in human LoVo cells assessed as suppression of cell migration measured up to 48 hrs by wound healing assay; assay type: functional, cell-based; settings: dose <= 1.0 µM, DDE = dose-dependent effect
# [16] = target: Serine-protein kinase ATM (Homo sapiens) (UniProt Q13315); experiment: Activation of ATM signaling in human HT-29 cells proficient in ATM at 1 uM measured after 3 days by immunofluorescence assay; assay type: cell-based; settings: filed as activator, time 3.0 day
# [17] = Toxicity in NOD/SCID mouse xenografted with human LoVo cells assessed as damage in heart at 50 to 100 mg/kg, po administered bid for 30 days measured after 2 hrs post last dose by H and E staining method; assay type: organism-based; settings: in vivo, 720 h, dose 50-100 mg/kg, time 30 day
# [18] = test system: LoVo; experiment: Antiproliferative activity against ATM-deficient human LoVo cells assessed as reduction in cell viability incubated for 72 hrs by MTT assay; assay type: functional, cell-based; settings: dose 0.001-100 µM, DDE = dose-dependent effect
# [19] = AUC (0 to infinity) in Sprague-Dawley rat at 10 mg/kg, po measured at 0.083 to 24 hrs by LC-MS/MS method; assay type: ADME, organism-based; design: time lower 0.083 hrs, dose 10 mg/kg, time upper 24 hrs, route po; settings: in vivo
# [20] = test system: HT-29; experiment: Induction of apoptosis in human HT-29 cells assessed as viable cells at 0.3 uM measured after 48 hrs by Annexin V-FITC/Propidium iodide staining based flow cytometry analysis (reference value: 97.01%); assay type: functional; settings: read-out: Activity
# [21] = AUC (0 to infinity) in Sprague-Dawley rat at 5 mg/kg, iv measured at 0.083 to 24 hrs by LC-MS/MS method; assay type: ADME, organism-based; design: dose 5 mg/kg, time upper 24 hrs, time lower 0.083 hrs, route iv; settings: in vivo
# [22] = test system: LoVo; experiment: Induction of apoptosis in human LoVo cells deficient in ATM assessed as necrotic cells at 1 uM measured after 24 hrs by Annexin V-FITC/Propidium iodide staining based flow cytometry analysis (reference value: 0.84%); assay type: functional
# [23] = Tmax in Sprague-Dawley rat at 10 mg/kg, po measured at 0.083 to 24 hrs by LC-MS/MS method; assay type: ADME, organism-based; settings: in vivo, time 0.083-24 hrs
# [24] = test system: HT-29; experiment: Induction of apoptosis in human HT-29 cells assessed as late apoptotic cells at 1 uM measured after 48 hrs by Annexin V-FITC/Propidium iodide staining based flow cytometry analysis (reference value: 0.71%); assay type: functional
# [25] = target: T1, Serine/threonine-protein kinase ATR; experiment: Inhibition of ATR signalling in ATM-deficient human LoVo cells assessed as change in expression of ATR at up to 3 uM incubated for 1 hr followed by hydroxyurea addition measured after 4 hrs by Western blot analysis; assay type: cell-based; settings: time 5.0 hrs
# [26] = test system: HT-29; experiment: Induction of apoptosis in human HT-29 cells assessed as necrotic cells at 3 uM measured after 48 hrs in presence of AZD1390 by Annexin V-FITC/Propidium iodide staining based flow cytometry analysis (reference value: 0.23%); assay type: functional
# [27] = test system: HCT-116; experiment: Antiproliferative activity against ATM proficient human HCT-116 cells assessed as reduction in cell viability incubated for 72 hrs by MTT assay; assay type: functional, cell-based; settings: dose 0.001-100 µM, DDE = dose-dependent effect
# [28] = test system: LoVo; experiment: Induction of apoptosis in human LoVo cells deficient in ATM assessed as viable cells at 3 uM measured after 24 hrs by Annexin V-FITC/Propidium iodide staining based flow cytometry analysis (reference value: 91.64%); assay type: functional; settings: read-out: Activity
# [29] = Half life in Sprague-Dawley rat at 5 mg/kg, iv measured at 0.083 to 24 hrs by LC-MS/MS method; assay type: ADME, organism-based; settings: in vivo, time 0.083-24 hrs
# [30] = test system: LoVo; experiment: Induction of apoptosis in human LoVo cells deficient in ATM assessed as late apoptotic cells at 1 uM measured after 24 hrs by Annexin V-FITC/Propidium iodide staining based flow cytometry analysis (reference value: 3.32%); assay type: functional
# [31] = test system: LoVo; experiment: Induction of apoptosis in human LoVo cells deficient in ATM assessed as viable cells at 0.3 uM measured after 24 hrs by Annexin V-FITC/Propidium iodide staining based flow cytometry analysis (reference value: 91.64%); assay type: functional; settings: read-out: Activity
structure (smiles),measurement,setting,value
C[C@@H]1COCCN1c1nc(-c2cccc3[nH]ccc23)nc2ccc(-c3ccnn3C)cc12,Activity,[1],Tde
same,Activity,[2],1.51%
same,Activity,[3],Dde
same,Activity,[4],1.06%
same,Cmax,[5],895 ng/mL
same,Activity,[6],28.73%
same,viability at 1 µM,[7],94.7%
same,bioavailability,[8],43.1%
same,Tmax,[9],4.8 min
same,Activity,[10],Non-Toxic
same,Activity,[11],Active
same,Activity,[12],20.78%
same,Activity,[13],Non-Toxic
same,Activity,[14],2.71%
same,Activity,[15],Dde
same,Activity,[16],Active
same,Activity,[17],Non-Toxic
same,Activity,[18],Dde
same,AUC(0-inf),[19],2720 ng·h/mL
same,viability at 0.3 µM,[20],95.4%
same,AUC(0-inf),[21],3150 ng·h/mL
same,Activity,[22],2.39%
same,Tmax,[23],1.67 h
same,Activity,[24],1.92%
same,inhibition,[25],Active
same,Activity,[26],5.39%
same,Activity,[27],Dde
same,viability at 3 µM,[28],41.2%
same,half-life,[29],1.37 h
same,Activity,[30],20.93%
same,viability at 0.3 µM,[31],55.9%
